# Measured values: patent publication US20170333591A9, “ABSORBENT ARTICLE COMPRISING MALODOR REDUCTION COMPOSITIONS” (The Procter & Gamble Company, priority 2014, published 2017)
# Test: Log of liquid dish neat product liquid-air partition coefficient
# Format: physicochemical
# Details: for Log of liquid dish neat product liquid-air partition coefficient (Comment Code K/L): Comment Code letters K and/or L
SMILES,Comment Code: Log of liquid dish neat product liquid-air partition coefficient,Log of liquid dish neat product liquid-air partition coefficient (Comment Code K/L)
CC1(C)C2CCC3(C2)C1C1(CCC3(C)C)OCCO1 (centres unmarked) [Material 1144],K (Log of liquid dish neat product liquid-air partition coefficient greater than or equal to 7),K (Log of liquid dish neat product liquid-air partition coefficient greater than or equal to 7)
CC1(C)C2CCC3(C2)C1C1(CCC3(C)C)OCCO1 (centres unmarked) [Material 1145],K (Log of liquid dish neat product liquid-air partition coefficient greater than or equal to 7),K (Log of liquid dish neat product liquid-air partition coefficient greater than or equal to 7)
C=C1CCC2OC2(C)CCC2C1CC2(C)C (centres unmarked) [Material 1148],K (Log of liquid dish neat product liquid-air partition coefficient greater than or equal to 7),K (Log of liquid dish neat product liquid-air partition coefficient greater than or equal to 7)
CC1(C)C2CCC3(C2)C1C(=O)CCC3(C)C (centres unmarked) [Material 1149],K (Log of liquid dish neat product liquid-air partition coefficient greater than or equal to 7),K (Log of liquid dish neat product liquid-air partition coefficient greater than or equal to 7)
